From ChEMBL document CHEMBL1145221, “2,3-Diphenylpropionic acids as potent VLA-4 antagonists” (Bioorg Med Chem Lett, 2005) come the findings set out here.

A short description of this data set: physchem. Conditions: water.

As a reminder, the solubility is the concentration that dissolves in the medium under given conditions. Low values mean little dissolved substance, high ones much dissolved substance.

The structures appear in SMILES notation. Values after ≈ are worked out from the molar mass of the structure shown.

The molecule `Cc1cccc(Br)c1C(=O)N[C@@H](Cc1ccc(NC(=O)c2c(Cl)cccc2Cl)cc1)C(=O)O` returned a solubility of 330 µg/mL (≈ 600 µM).
To `COc1cccc(OC)c1-c1ccc(C[C@H](NC(=O)c2c(Cl)cccc2Cl)C(=O)O)cc1` belongs 219 µg/mL (≈ 462 µM).
